Test results from patent US7629154B2, “Deinococcus N-acylamino acid racemase and use of preparing L-amino acid” (National Chunghsing University, priority 2005, dated 2009).
Read-outs that look alike come from different tables or passages of the source. Blank lines part the entries; values can stand above or below the compound they belong to.

Assays:
[1] = target: T1, N-acylamino acid racemase (NAAAR) (Deinococcus radiodurans, UniProt Q9RYA6, A252S/A94S/G148D/K158R/P315S); experiment: Substrate selectivity / enzymetic activity of NAAAR by Chiral-HPLC; type: biochemical, Deinococcus radiodurans NCHU1003; conditions: for Specific activity: 10 mM substrate, 0.5 mM CoCl2, 50 mM Tris-HCl pH 8.0, 50° C., 30 min; for Relative activity: percentage of the enzyme activity using N-acetyl-D-Met as substrate
T1 sequence (Q9RYA6 whole entry A94S/G148D/K158R/A252S/P315S): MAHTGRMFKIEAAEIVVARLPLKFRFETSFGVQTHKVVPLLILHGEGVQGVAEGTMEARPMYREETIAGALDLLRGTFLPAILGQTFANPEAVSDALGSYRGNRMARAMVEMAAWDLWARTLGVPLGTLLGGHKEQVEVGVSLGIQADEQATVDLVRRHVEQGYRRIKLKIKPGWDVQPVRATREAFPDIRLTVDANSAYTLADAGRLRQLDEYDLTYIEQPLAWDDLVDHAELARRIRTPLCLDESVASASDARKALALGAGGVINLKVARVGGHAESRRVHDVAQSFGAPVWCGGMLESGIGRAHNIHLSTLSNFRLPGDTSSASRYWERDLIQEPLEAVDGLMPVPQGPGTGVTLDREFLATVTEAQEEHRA
Protocol: The enzymetic activity was determined by measuring the production profile of conversion product at 215 nm via HPLC method as described by Tokuyama et al (1994). The reaction buffer containing 10 mM substrate, 0.5 mM CoCl2 and appropriate amount of the enzyme in 50 mM Tris-HCl buffer (pH 8.0) was incubated at 50° C. for 30 min, and the reaction was terminated by placing in boiling water for 5 min. The enzymetic activity was then measured by a Chiral-HPLC method. The Km values (mM) were determined from the original velocity data and the changes in NAc-D-HPA or NAc-D-HPA concentration. The unit NAAAR activity was defined as the enzyme amount required for catalysing 1 μmole of product formation under used condition. As described in the following Table 1, the specific activity of NAAAR for substrate N-carbamoyl-D-HPA was 1.31 U/mg, see Table 1.

[2] = target: T1, N-acylamino acid racemase (NAAAR); type: biochemical, Deinococcus radiodurans NCHU1003
[3] = system: L-N-carbamoylase/N-acylamino acid racemase; experiment: Conversion of NCa-D-HPA with enzymes L-N-carbamoylase/N-acylamino acid racemase; type: biochemical; conditions: start 10 mM N-carbamoyl-D-HPA, 50° C., pH 8.0
Source text: NCAU (5′-[…]-3′, SEQ ID NO: 5), containing BamHI restriction site; and NCAD (5′-[…]-3′, SEQ ID NO:6), containing HindIII restriction site. The nucleotide sequences encoding the NAAAR and L-N-carbamoylase were amplified from Deinococcus radiodurans NCHU1003 and Bacillus kaustophilus CCRC11223 chromosome, respectively, by PCR technology. The PCR products contained T5 promoter, lac operator and 6×his-tag sequence at the 5′-end and A transcriptional terminator at the 3′-end. The PCR products were cloned in the pQE30 expression vector. The resultant plasmid, pQEarlnca, was transformed into E. coli JM109 for inductive expression.
The reaction mixture containing 10 mM substrate N-carbamoyl-D-HPA, 0.5 mM CoCl2, 50 mM Tris-HCl buffer (pH 8.0), and the enzymes NAAAR and L-N-carbamoylase isolated from induced transformant was incubated at 50° C. for carrying out the conversion. After analysed by the Chiral-HPLC method, it is shown that the co-expressed enzymes could completely convert the original substrate to the final product L-amino acid in 2 to 3 h in one single reaction.

[4] = compound at 2 mM, percentage of activity with CoCl2, substrate 10 mM N-carbamoyl-D-HPA, 50° C., 30 min

SMILES: CSCC[C@H](NC(C)=O)C(=O)O [N-acetyl-L-Met]
- Specific activity [1]: 8.04 U/mg
- Relative activity [1]: 125.63%

SMILES: [Cl-].[Cl-].[Mg+2] [MgCl2]
- Relative activity [2, 4]: 20.5%

SMILES: CC(=O)N[C@@H](Cc1ccccc1)C(=O)O [N-acetyl-L-Phe]
- Specific activity [1]: 1.55 U/mg
- Relative activity [1]: 24.22%

SMILES: CC(=O)N[C@@H](CCC(N)=O)C(=O)O [N-acetyl-L-Gln]
- Specific activity [1]: 0.93 U/mg
- Relative activity [1]: 14.53%

SMILES: O=C(O)CN(CCN(CC(=O)O)CC(=O)O)CC(=O)O [EDTA]
- Relative activity ([2]; compound at 10 mM, percentage of activity with CoCl2, substrate 10 mM N-carbamoyl-D-HPA, 50° C., 30 min): 0%

SMILES: [Cl-].[Cl-].[Co+2] [CoCl2]
- Effect of bivalent metal ion on NAAAR enzymetic activity [2]: improved enzymetic activity
- Relative activity [2]: 100%

SMILES: CC(=O)N[C@@H](CCc1ccccc1)C(=O)O [N-acetyl-L-HPA]
- Specific activity [1]: 11.97 U/mg
- Relative activity [1]: 187.03%

SMILES: [2H]NC(=O)N[C@@H](CCc1ccccc1)C(=O)O [N-carbamoyl-D-HPA]
- Specific activity [1]: 1.31 U/mg
- Relative activity [1]: 20.46%
- Concentration in conversion reaction ([3]; time 0.5 hour): 4.16 mM
- Concentration in conversion reaction ([3]; time 1.0 hour): 1.16 mM
- Concentration in conversion reaction ([3]; time 2.0 hour): 0 mM

SMILES: [Ca+2].[Cl-].[Cl-] [CaCl2]
- Relative activity [2, 4]: 0%

SMILES: CC(=O)N[C@@H](CC(C)C)C(=O)O [N-acetyl-L-Leu]
- Specific activity [1]: 0.45 U/mg
- Relative activity [1]: 7.03%

SMILES: [Cl-].[Cl-].[Zn+2] [ZnCl2]
- Relative activity [2, 4]: 19.7%

SMILES: [Cl][Mn][Cl] [MnCl2]
- Relative activity [2, 4]: 79.1%
- Effect of bivalent metal ion on NAAAR enzymetic activity ([2]; in words): improved enzymetic activity

SMILES: CC(=O)N[C@@H](Cc1c[nH]c2ccccc12)C(=O)O [N-acetyl-L-Trp]
- Specific activity [1]: 0.87 U/mg
- Relative activity [1]: 13.13%

SMILES: CC(=O)N[C@H](CCc1ccccc1)C(=O)O [N-acetyl-D-HPA]
- Specific activity [1]: 9.17 U/mg
- Relative activity [1]: 143.28%

SMILES: CSCC[C@@H](NC(C)=O)C(=O)O [N-acetyl-D-Met]
- Specific activity [1]: 6.40 U/mg
- Relative activity [1]: 100%

SMILES: CC(=O)N[C@H](Cc1ccccc1)C(=O)O [N-acetyl-D-Phe]
- Specific activity [1]: 1.98 U/mg
- Relative activity [1]: 30.94%

SMILES: [Cl][Ni][Cl] [NiCl2]
- Relative activity [2, 4]: 40.6%
- Effect of bivalent metal ion on NAAAR enzymetic activity ([2]; in words): improved enzymetic activity

SMILES: NC(=O)N[C@@H](CCc1ccccc1)C(=O)O [N-carbamoyl-L-HPA]
- Specific activity [1]: 1.91 U/mg
- Relative activity [1]: 29.84%
- Concentration in conversion reaction ([3]; time 0.5 hour): 0.88 mM
- Concentration in conversion reaction ([3]; time 1.0 hour): 0 mM
- Concentration in conversion reaction ([3]; time 2.0 hour): 0 mM

SMILES: O=C(CCl)N[C@@H](Cc1ccccc1)C(=O)O [N-chloroacetyl-L-Phe]
- Specific activity [1]: 1.16 U/mg
- Relative activity [1]: 18.13%

SMILES: [Cl][Cu][Cl] [CuCl2]
- Relative activity [2, 4]: 0%

- Concentration in conversion reaction ([3]; time 0.5 hour): 4.96 mM
- Concentration in conversion reaction ([3]; time 1.0 hour): 8.84 mM
- Concentration in conversion reaction ([3]; time 2.0 hour): 10 mM
SMILES: N[C@@H](CCc1ccccc1)C(=O)O [L-HPA, L-homophenylalanine]
